Paper PMC11674187, “Inhibitory Effects of Cenobamate on Multiple Human Cardiac Ion Channels and Possible Arrhythmogenic Consequences” (Biomolecules, 2024)
“And” between values parts separate entries of the source, which are not always exact repeats. Equal entries are not always repeated. Where two headings read alike, the source gives them in different places.

Tests used:
[1] = cited from earlier work; for healthy volunteers with QT interval shortening greater than 20 ms: study YKP3089C020, ref [9] p. 11
hNav1.5 = molecular target: T1, hNav1.5 (Homo sapiens, UniProt Q14524); assay: State-dependent blocking/unblocking kinetics of Nav1.5 (use-dependent block protocol, inactivation time constants); assay type: cell-based
T1 construct: host or cells: HEK293T
T1 sequence (Q14524 whole entry): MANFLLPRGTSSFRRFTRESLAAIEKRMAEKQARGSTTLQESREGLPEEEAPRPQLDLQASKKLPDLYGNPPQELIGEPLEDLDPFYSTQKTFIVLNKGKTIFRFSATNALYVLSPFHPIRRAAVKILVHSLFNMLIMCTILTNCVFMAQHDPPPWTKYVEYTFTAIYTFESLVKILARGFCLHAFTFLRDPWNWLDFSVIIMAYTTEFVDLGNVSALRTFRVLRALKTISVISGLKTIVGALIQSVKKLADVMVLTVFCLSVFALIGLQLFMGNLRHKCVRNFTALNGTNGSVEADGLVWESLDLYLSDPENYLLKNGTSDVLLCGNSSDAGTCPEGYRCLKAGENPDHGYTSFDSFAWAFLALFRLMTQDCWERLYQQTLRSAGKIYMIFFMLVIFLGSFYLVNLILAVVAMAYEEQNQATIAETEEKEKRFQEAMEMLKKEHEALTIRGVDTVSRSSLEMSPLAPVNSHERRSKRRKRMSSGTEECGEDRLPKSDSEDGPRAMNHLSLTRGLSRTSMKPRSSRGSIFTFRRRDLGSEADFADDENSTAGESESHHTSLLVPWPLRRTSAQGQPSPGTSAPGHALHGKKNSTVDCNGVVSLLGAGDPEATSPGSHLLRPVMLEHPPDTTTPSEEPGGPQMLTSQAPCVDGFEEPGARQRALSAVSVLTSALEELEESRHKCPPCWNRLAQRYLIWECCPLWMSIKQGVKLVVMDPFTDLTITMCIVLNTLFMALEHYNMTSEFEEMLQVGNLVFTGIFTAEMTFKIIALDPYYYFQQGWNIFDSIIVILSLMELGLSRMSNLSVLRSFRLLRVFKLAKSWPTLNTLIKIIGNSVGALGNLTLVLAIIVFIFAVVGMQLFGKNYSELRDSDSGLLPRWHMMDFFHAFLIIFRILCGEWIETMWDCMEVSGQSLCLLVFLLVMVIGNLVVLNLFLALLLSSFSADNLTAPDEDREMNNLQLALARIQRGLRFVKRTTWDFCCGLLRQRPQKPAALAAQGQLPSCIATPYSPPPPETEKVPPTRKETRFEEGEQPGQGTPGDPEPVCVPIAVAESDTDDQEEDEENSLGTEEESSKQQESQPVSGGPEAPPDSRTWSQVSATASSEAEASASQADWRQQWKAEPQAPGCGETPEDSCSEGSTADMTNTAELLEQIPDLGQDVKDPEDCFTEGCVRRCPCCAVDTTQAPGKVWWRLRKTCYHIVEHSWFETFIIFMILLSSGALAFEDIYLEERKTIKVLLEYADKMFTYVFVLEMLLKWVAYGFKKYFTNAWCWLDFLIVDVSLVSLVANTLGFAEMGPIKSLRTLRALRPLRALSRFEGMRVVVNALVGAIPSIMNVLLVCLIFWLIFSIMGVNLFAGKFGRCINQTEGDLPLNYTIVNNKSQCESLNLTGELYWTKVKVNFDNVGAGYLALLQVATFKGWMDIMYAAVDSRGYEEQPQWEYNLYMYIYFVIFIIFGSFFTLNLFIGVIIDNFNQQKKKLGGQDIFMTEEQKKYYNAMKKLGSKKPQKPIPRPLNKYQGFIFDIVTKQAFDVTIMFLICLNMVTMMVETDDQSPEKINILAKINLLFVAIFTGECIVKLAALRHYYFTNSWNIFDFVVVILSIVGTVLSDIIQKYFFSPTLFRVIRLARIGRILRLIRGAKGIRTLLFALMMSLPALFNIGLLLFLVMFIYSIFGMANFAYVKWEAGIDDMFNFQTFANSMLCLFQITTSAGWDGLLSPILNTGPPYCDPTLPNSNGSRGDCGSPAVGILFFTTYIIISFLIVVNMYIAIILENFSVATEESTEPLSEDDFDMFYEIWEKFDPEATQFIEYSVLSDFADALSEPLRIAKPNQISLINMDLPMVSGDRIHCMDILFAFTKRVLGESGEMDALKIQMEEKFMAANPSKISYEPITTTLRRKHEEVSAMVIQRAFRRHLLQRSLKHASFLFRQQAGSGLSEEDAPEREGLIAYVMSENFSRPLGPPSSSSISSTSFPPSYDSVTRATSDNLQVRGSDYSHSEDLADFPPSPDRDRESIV
Experimental: Manual whole-cell patch-clamp experiments were performed at room temperature, with equipment as described in previous studies. Pipettes were pulled from Clark borosilicate glass capillaries with inner filament (GC150F-10, Harvard Apparatus, Holliston, MA, USA) and had typical resistances of 2–3 MΩ. Recordings were performed with a WPC-100 resistive feedback amplifier (ESF electronic, Göttingen, Germany) or an Axopatch 200B amplifier (Axon Instruments—Molecular Devices, San Jose, CA, USA) connected to a Digidata 1322A interface driven by the pClamp 8.2 Clampex module (Axon Instruments, part of Molecular Devices, San Jose, CA, USA). For different types of ion channel, we applied specific voltage-clamp protocols as follows: • - For hERG, a standard two-step activation protocol was used: holding at −70 mV, a 100 ms step at −50 mV used as current reference for measurements, a 2 s depolarizing step at +40 mV, followed by a 2 s step at −50 mV to elicit the peak hERG current by rapid recovery from inactivation, repeated sweeps at 10 s intervals, plus specific protocols to assess the voltage dependence of activation and inactivation, as described in Thomet et al., 2021 [11]. • - For hKv7.1 + minK, a general two-step activation protocol was used: holding at −110 mV, a 250 ms step at −80 mV with a brief (50 ms) step at −90 mV at the middle to monitor seal quality, a 3000 ms depolarizing step at +60 mV, followed by a 1000 ms step at −50 mV; repeated sweeps at 20 s intervals. • - For hCav1.2, a pharmacology protocol with holding at −80 mV, a first 100 ms step at −50 mV and a second 200 ms step at 0 mV, repeated sweeps at 20 s intervals with drug application after 5 sweeps if current levels were steady, plus an activation–inactivation protocol with holding at −80 mV, 1000 ms depolarizing steps from −80 to +50 mV in 10 mV increments, followed by 250 ms steps at +10 mV and a return to −80 mV; 14 sweeps at 20 s intervals. • - For hNav1.5, multiple voltage protocols were used, including the following: • - A standard pharmacology protocol with holding at −90 mV, a 20 ms step at −110 mV for seal monitoring, a 40 ms activation step at −10 mV, and repeated sweeps at 1 s intervals.
To estimate state-specific blocking and unblocking kinetics, we applied, initially and during exposure to cenobamate, a special voltage protocol devised for use-dependent block, with repeated brief depolarizing pulses at −10 mV separated by variable intervals at a hyperpolarized potential (−120 mV), with durations between 5 and 50 ms, as described in Section 2. Recordings using this protocol in initial conditions and with cenobamate application are illustrated in Figure S3 of the Supplementary Materials. By noting with td = 10 ms and tr = 5–50 ms the times spent at a depolarized potential and at a resting hyperpolarized potential during each pulse, with on the fraction of available (non-inactivated or blocked) channels that produce the peak Na^+ current during each depolarizing pulse of the sequence, and with τi and τr, the apparent macroscopic time constants of inactivation and recovery from inactivation in control conditions (in the absence of a blocker), we obtained using several approximations a general recurrence formula that allows computation for each experiment of the recovery time constant, knowing the inactivation time constant (obtained by the monoexponential fit of the inactivation part of the recording during the depolarization pulse) and the decay in peak INa amplitude during pulse n relative to the peak amplitude during the preceding pulse (1 − on)/on−1 (detailed explanations in Section S1 of the Supplementary Materials): τr=tr/ln1−e^−td/τi−ln1−on/on−1

NC(=O)O[C@@H](Cn1ncnn1)c1ccccc1Cl [cenobamate]
healthy volunteers with QT interval shortening greater than 20 ms ([1]; 200 mg oral dose, 6–17% with placebo): 31%
healthy volunteers with QT interval shortening greater than 20 ms ([1]; 500 mg): 66%
QTc interval shortening ([1]; ref [9] pp. 11–12): > 20 ms
QTc interval under cenobamate (not below) ([1]; ref [9] pp. 11–12): ≥ 300 ms
kib (blocking rate, inactivated conformation) (hNav1.5): 669800 M⁻¹ s⁻¹
kib (model script) (hNav1.5): 669800 M⁻¹ s⁻¹
kib^−1 (unblocking rate, inactivated conformation) (hNav1.5): 0.1825 ms^−1
kob (blocking rate, open conformation) (hNav1.5): 2.15e+06 M⁻¹ s⁻¹
kob (model script) (hNav1.5): 2.15e+06 M⁻¹ s⁻¹
kob^−1 (unblocking rate, open conformation) (hNav1.5): 0.189 ms^−1
Kd (hNav1.5; Kd (I)): 273 µM
Kd (hNav1.5; Kd (O), open conformation, assumed equivalent to IC50 on peak INa): 87.8 µM
1/τib (kib × [D] + kib^−1) (hNav1.5; [D] 98.44 µM): 0.2484 ms^−1
est. τib (hNav1.5; blocking/unblocking time constant of inactivated conformation, cenobamate estimated 98.44 µM, per experiment and mean ± SD): 4.08 ms and 3.83 ms and 4.94 ms and 3.25 ms
Rate (1/τ) with cenobamate (hNav1.5; cenobamate 200 µM, initial 0.94): 1.56 ms^−1
τi+ob (hNav1.5; use-dependent block protocol during cenobamate (estimated 98.44 µM), per experiment and mean ± SD): 2.23 ms and 3.04 ms and 2.94 ms and 1.73 ms
